Literature values in the PKSmart pharmacokinetics tables (Seal et al. 2025).

Key:
[1] = Lombardo et al. 2013, J Clin Pharmacol 53:178, doi 10.1177/0091270012440282; details: for Vd / clearance: in vivo, iv; for fraction unbound: plasma
[2] = Lombardo, Berellini, Obach 2018, Drug Metab Dispos 46:1466, doi 10.1124/dmd.118.082966; details: human; for MRT / Vd / clearance / half-life: in vivo, iv; for fraction unbound: plasma

SMILES	Vd ([1]; dog) [L/kg]	clearance ([1]; dog) [mL/min/kg]	clearance ([1]; rat) [mL/min/kg]	MRT [2] [h]	Vd [2] [L/kg]	clearance [2] [mL/min/kg]	half-life [2] [h]	fraction unbound [2]	fraction unbound ([1]; dog)	fraction unbound ([1]; monkey)	Vd ([1]; rat) [L/kg]	fraction unbound ([1]; rat)	Vd ([1]; monkey) [L/kg]	clearance ([1]; monkey) [mL/min/kg]
COCC(=O)O[C@]1(CCN(C)CCCc2nc3ccccc3[nH]2)CCc2cc(F)ccc2[C@@H]1C(C)C	9.7	18.4	94	13	3.1	4	13	0.005						
CC1COc2c(N3CCN(C)CC3)c(F)cc3c(=O)c(C(=O)O)cn1c23 (configuration not stated)	1.3	23.2	13.2	11	1.6	2.5	8.9		0.51	0.71	1.42			
CCS(=O)(=O)CCn1c([N+](=O)[O-])cnc1C	0.89	1.67		16	0.59	0.6	13							
Nc1cc(-c2ccncc2)c[nH]c1=O	1.2	6		2.4	1.3	8.9	2	0.89						
Cc1nc2sccn2c(=O)c1CCN1CCC(=C(c2ccc(F)cc2)c2ccc(F)cc2)CC1			26.7	46.1	1.41	0.51	40	0.008			8	0.015		
COc1c(N2CCNC(C)C2)c(F)cc2c(=O)c(C(=O)O)cn(C3CC3)c12 (configuration not stated)	2.11	4.2	19.3	11	1.7	2.8	10		0.84	0.83	2.5	0.75	1.85	10.2
O=C(O)Cc1ccccc1Nc1c(Cl)cccc1Cl	0.19	1.4	16.8	1	0.22	3.5	1.4				1.39		0.32	8.5
C#C[C@]1(O)CC[C@H]2[C@@H]3CCc4cc(OS(=O)(=O)O)ccc4[C@H]3CC[C@@]21C				8.2	2.3	4.7	8.4	0.011					21	39
Cc1cccc(C)c1NC(=O)NCCCNC(C)C	1.2	13	82	5.2	1.4	4.5	5	0.86	0.7	0.69	3.2	0.88	3	26.7
CCCC(C)C1(CC)C(=O)NC(=O)NC1=O (configuration not stated)	1.06	1.3	8.4	32	0.91	0.47	22	0.39			1.64	0.5		
CNC1(c2ccccc2Cl)CCCCC1=O (configuration not stated)	2.5	32.2	115	2.5	2.9	19	2.8	0.47	0.47		3.68			
C#CCCCC(=O)c1cc(C(C)(C)C)c(O)c(C(C)(C)C)c1	24.8	30.9	41.4	22.3	12	8.9	50.7				7.9		10.4	14.9
CC[C@@]1(O)C(=O)OCc2c1cc1n(c2=O)Cc2cc3c(CN(C)C)c(O)ccc3nc2-1								0.65		0.8		0.747		
NC(=O)c1csc([C@@H]2O[C@H](CO)[C@@H](O)[C@H]2O)n1	0.99			7.6	1.1		5.9	0.47	0.85	1			2	
CN(C)CCc1c[nH]c2ccc(C[C@H]3COC(=O)N3)cc12			29.4	4.6	1.8	6.7	3.6				3.53			
COC(=O)C(c1ccccc1)C1CCCCN1 (configuration not stated)			53	4.5	2.2	9.42	4.8	0.85			3			
C[C@]12C=CC(=O)C=C1CC[C@@H]1C2C(=O)C[C@@]2(C)[C@H]1CC[C@]2(O)C(=O)CO (some centres not stated)	2.3	24.9	155	3.8	0.57		2.9		0.5	0.261	1.3	0.41	1.7	9.8
CC1(C)S[C@@H]2C(NC(=O)C(N)c3ccccc3)C(=O)N2C1C(=O)O (some centres not stated)	0.58	9.1	19	1.3	0.22	2.8	1.4		0.58		1.1	0.6		
COc1cc2nc(N3CCN(C(=O)C4COc5ccccc5O4)CC3)nc(N)c2cc1OC (configuration not stated)	5	13		14	1.3		10		0.0653		3	0.03		
